% of control, % of inhibition and dTM data for nine molecules are collected here from ChEMBL document CHEMBL5465560, “Selectivity Literature for EUbOPEN Chemogenomic Library” (2024).

Assay [1] addresses RAC-alpha serine/threonine-protein kinase (Homo sapiens, UniProt P31749). Kind of assay: Selectivity interaction (Kinase panel (Z-LYTE Assay)) EUB0001632a AKT1. The conditions noted are these: at 10 µM.
The target in assay [2] is Phosphatidylinositol 4-kinase type 2-beta (Homo sapiens) (UniProt Q8TCG2). Kind of assay: Selectivity interaction (Adapta Assay) EUB0001632a PI4K2B. The conditions noted are these: at 10 µM.
Assay [3] has as its target Phosphatidylinositol 4-phosphate 3-kinase C2 domain-containing subunit beta (Homo sapiens) (UniProt O00750). The assay is described as follows: Selectivity interaction (KinomeScan (DiscoverX)) EUB0001619a PIK3C2B. The conditions noted are these: at 1 µM.
In assay [4] the target is Vascular endothelial growth factor receptor 3 (Homo sapiens, UniProt P35916). The assay is described as follows: Selectivity interaction (KinomeScan (DiscoverX)) EUB0000666a FLT4. The conditions noted are these: at 10 µM.
Assay [5] has as its target Mitogen-activated protein kinase 3 (Homo sapiens, UniProt P27361). Kind of assay: Selectivity interaction (SelectScreen profiling (Invitrogen)) EUB0000607a MAPK3. The conditions noted are these: at 2 µM.
In assay [6] the target is Serine/threonine-protein kinase pim-3 (Homo sapiens) (UniProt Q86V86). The assay is described as follows: Selectivity interaction (KinomeScan (DiscoverX)) EUB0001049a PIM3. The conditions noted are these: at 1 µM.
Assay [7] concerns the target T1, cGMP-dependent protein kinase 2 (Homo sapiens) (UniProt Q13237).
T1 sequence (whole entry): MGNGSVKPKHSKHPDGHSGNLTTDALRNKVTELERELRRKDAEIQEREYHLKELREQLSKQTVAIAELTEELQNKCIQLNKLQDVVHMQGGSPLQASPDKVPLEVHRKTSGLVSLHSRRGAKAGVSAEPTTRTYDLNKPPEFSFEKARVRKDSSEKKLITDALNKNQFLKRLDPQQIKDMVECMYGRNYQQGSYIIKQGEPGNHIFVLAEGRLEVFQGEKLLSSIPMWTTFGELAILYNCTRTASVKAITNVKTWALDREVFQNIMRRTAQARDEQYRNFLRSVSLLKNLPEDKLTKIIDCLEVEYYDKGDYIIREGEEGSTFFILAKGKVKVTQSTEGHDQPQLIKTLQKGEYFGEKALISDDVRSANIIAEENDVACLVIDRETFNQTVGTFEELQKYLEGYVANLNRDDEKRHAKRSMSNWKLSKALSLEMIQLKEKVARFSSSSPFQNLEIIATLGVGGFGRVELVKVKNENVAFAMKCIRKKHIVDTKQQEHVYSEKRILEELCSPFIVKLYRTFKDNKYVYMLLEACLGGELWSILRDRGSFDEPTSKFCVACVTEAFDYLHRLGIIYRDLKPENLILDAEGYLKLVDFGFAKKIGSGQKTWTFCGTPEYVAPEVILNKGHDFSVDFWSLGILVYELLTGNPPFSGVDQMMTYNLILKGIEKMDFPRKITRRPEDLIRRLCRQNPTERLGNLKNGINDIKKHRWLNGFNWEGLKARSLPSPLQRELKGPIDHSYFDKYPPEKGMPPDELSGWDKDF
Kind of assay: Selectivity interaction (KinomeScan (DiscoverX)) EUB0001049a PRKG2. The conditions noted are these: at 1 µM.

Assay [8] concerns the target Glycogen synthase kinase-3 alpha (Homo sapiens, UniProt P49840). Kind of assay: Selectivity interaction (Upstate Kinase Profiler service (Millipore)) EUB0000056c GSK3A. The conditions noted are these: at 1 µM.
For assay [9], the target named is Mitogen-activated protein kinase 11 (Homo sapiens) (UniProt Q15759). Kind of assay: Selectivity interaction (Upstate Kinase Profiler service (Millipore)) EUB0000056c MAPK11. The conditions noted are these: at 1 µM.
Assay [10] concerns the target Serine/threonine-protein kinase 10 (Homo sapiens) (UniProt O94804). The assay is described as follows: Selectivity interaction (Upstate Kinase Profiler service (Millipore)) EUB0000056c STK10. The conditions noted are these: at 1 µM.
The target of assay [11] is T2, Uncharacterized serine/threonine-protein kinase SBK3 (Homo sapiens) (UniProt P0C264).
T2 sequence (whole entry): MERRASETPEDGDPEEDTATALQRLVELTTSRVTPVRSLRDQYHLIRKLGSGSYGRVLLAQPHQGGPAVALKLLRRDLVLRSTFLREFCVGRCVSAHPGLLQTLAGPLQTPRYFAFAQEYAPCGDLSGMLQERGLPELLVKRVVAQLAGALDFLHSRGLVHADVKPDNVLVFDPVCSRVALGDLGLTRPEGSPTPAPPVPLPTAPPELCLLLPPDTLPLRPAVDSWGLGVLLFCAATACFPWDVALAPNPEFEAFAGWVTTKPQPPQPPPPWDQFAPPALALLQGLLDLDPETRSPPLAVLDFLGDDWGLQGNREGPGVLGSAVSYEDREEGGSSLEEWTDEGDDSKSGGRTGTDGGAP
Kind of assay: Selectivity interaction (KinomeScan (DiscoverX)) EUB0000655a SBK3. The conditions noted are these: at 10 µM.

Assay [12] addresses T3, Mitogen-activated protein kinase kinase kinase 13 (Homo sapiens) (UniProt O43283).
T3 sequence (whole entry): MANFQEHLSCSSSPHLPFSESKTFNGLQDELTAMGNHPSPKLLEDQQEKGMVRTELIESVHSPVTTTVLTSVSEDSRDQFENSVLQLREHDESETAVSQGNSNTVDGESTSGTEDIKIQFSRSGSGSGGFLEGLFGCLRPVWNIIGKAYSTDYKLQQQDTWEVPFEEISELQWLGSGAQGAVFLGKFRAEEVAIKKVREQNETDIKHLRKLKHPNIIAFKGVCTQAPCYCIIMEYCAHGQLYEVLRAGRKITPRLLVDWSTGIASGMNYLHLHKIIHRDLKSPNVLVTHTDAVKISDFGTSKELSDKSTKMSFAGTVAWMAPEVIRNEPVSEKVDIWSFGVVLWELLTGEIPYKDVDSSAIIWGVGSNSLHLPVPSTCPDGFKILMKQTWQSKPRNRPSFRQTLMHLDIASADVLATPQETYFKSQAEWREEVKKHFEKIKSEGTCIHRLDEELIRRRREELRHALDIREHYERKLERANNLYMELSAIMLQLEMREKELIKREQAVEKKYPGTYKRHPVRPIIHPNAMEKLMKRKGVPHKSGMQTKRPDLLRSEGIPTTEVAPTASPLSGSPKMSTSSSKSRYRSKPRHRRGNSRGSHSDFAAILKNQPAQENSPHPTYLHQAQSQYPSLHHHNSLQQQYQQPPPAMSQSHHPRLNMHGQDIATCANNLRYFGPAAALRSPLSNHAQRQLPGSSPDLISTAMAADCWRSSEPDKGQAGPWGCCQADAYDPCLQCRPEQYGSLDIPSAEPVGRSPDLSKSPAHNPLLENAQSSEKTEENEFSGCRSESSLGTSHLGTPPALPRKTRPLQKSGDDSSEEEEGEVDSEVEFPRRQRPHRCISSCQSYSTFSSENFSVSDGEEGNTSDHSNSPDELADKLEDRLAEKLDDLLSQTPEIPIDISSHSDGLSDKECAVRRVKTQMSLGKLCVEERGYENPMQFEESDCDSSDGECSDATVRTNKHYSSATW
The assay is described as follows: Selectivity interaction (KinomeScan (DiscoverX)) EUB0000655a MAP3K13. The conditions noted are these: at 10 µM.

Assay [13] concerns the target Protein polybromo-1 (Homo sapiens) (UniProt Q86U86). The assay is described as follows: Selectivity interaction (Bromodomain panel (DSF asssay)) EUB0000270b PBRM1.
Assay [14] deals with Casein kinase I isoform gamma-1 (Homo sapiens) (UniProt Q9HCP0). The assay is described as follows: Selectivity interaction (KinomeScan (DiscoverX)) EUB0000618a CSNK1G1. The conditions noted are these: at 10 µM.
Casein kinase I isoform gamma-1 (Homo sapiens), sequence (Q9HCP0 whole entry, looked up, canonical isoform): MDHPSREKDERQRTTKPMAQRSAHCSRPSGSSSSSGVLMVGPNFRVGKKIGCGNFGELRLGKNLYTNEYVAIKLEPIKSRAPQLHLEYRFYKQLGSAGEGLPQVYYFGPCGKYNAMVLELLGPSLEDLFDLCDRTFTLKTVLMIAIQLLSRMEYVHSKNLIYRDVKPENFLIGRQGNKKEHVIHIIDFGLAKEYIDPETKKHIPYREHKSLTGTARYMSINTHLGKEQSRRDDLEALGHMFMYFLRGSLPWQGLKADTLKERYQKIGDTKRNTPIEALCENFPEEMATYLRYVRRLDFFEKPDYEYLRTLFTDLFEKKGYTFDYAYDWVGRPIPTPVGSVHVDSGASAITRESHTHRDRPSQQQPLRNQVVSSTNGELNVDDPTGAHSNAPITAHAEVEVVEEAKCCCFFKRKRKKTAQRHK

Glycogen synthase kinase-3 alpha, sequence (P49840 2-483 limits assumed): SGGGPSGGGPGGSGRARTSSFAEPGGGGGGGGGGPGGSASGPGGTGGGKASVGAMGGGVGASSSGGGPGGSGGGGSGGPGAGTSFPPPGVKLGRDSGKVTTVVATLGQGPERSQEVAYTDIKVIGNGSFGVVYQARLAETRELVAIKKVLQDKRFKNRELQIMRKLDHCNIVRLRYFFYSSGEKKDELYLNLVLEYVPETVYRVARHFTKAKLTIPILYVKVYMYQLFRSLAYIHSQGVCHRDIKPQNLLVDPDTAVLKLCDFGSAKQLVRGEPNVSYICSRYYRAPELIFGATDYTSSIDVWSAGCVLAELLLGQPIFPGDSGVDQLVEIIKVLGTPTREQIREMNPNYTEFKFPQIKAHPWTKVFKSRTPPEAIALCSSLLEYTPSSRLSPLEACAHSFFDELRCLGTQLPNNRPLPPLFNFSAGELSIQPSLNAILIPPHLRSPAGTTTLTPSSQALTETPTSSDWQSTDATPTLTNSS
Mitogen-activated protein kinase 11 (Homo sapiens), sequence (Q15759 whole entry): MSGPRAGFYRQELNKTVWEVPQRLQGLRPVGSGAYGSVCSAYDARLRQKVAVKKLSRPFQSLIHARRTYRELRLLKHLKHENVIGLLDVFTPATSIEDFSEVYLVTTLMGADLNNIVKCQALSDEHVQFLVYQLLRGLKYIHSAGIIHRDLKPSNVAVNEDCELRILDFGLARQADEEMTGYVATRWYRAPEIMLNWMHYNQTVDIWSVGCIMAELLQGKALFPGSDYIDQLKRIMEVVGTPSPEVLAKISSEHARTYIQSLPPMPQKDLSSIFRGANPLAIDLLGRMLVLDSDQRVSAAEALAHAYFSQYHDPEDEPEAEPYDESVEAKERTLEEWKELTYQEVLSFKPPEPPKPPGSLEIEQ
Vascular endothelial growth factor receptor 3, sequence (P35916 whole entry): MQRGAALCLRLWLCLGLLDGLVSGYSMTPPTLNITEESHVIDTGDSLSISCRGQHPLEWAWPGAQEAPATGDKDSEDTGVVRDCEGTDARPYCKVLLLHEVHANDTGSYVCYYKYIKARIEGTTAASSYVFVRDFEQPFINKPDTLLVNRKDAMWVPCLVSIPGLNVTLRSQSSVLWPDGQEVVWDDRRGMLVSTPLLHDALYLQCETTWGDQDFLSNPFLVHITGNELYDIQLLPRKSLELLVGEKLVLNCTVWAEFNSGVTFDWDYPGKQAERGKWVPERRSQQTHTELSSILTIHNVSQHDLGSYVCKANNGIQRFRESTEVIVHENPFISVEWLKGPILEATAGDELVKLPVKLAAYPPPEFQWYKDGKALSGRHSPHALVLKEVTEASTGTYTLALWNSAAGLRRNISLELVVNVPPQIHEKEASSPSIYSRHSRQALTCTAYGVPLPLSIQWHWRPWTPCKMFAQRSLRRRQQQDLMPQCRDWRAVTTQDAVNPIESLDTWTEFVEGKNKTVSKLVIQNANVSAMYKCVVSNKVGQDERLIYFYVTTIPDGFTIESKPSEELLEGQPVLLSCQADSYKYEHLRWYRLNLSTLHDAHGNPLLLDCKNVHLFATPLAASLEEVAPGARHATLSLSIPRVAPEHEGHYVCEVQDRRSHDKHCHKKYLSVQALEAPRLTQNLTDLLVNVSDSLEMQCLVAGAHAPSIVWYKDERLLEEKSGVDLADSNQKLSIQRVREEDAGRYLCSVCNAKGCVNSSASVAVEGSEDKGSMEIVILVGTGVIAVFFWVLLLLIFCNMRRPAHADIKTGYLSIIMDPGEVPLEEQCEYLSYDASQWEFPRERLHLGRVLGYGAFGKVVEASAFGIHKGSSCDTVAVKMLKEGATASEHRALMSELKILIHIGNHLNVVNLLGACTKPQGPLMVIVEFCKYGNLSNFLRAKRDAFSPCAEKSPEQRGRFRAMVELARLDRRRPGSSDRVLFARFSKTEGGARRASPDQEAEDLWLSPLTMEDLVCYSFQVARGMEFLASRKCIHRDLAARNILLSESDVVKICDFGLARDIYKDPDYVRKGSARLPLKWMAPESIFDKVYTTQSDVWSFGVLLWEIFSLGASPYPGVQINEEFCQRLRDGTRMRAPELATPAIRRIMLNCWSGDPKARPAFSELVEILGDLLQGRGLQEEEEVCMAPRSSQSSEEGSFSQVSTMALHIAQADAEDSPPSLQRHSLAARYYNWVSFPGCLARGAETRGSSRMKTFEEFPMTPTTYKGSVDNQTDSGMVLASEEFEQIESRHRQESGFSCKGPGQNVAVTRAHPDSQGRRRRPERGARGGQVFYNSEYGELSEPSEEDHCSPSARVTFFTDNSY
Phosphatidylinositol 4-kinase type 2-beta (Homo sapiens), sequence (Q8TCG2 whole entry, the tested form may be a part): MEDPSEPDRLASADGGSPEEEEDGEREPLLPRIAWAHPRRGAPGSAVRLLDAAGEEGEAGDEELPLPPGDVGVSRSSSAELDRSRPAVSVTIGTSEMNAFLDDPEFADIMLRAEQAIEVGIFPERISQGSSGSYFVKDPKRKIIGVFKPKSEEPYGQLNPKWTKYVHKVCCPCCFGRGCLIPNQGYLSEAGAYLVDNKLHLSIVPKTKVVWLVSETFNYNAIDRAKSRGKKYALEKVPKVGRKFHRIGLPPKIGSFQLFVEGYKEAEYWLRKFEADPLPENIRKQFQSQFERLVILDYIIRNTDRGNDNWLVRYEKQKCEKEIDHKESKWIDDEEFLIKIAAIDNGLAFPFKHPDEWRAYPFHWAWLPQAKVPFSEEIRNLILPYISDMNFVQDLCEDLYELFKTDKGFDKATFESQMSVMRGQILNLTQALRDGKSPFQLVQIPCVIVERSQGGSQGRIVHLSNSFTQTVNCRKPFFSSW
RAC-alpha serine/threonine-protein kinase, sequence (P31749 whole entry): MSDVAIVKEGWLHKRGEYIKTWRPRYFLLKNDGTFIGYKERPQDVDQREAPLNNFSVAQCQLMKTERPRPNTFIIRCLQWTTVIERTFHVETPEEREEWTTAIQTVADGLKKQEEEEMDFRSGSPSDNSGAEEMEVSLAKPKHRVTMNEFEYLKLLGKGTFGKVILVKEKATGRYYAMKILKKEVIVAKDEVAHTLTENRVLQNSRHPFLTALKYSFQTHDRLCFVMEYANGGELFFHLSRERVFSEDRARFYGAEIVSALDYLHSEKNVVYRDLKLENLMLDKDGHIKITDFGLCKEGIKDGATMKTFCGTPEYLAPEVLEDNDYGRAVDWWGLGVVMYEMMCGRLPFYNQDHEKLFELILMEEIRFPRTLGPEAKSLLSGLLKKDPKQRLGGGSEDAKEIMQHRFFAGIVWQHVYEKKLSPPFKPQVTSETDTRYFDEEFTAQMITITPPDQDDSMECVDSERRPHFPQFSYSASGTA
Serine/threonine-protein kinase 10 (Homo sapiens), sequence (O94804 whole entry, looked up): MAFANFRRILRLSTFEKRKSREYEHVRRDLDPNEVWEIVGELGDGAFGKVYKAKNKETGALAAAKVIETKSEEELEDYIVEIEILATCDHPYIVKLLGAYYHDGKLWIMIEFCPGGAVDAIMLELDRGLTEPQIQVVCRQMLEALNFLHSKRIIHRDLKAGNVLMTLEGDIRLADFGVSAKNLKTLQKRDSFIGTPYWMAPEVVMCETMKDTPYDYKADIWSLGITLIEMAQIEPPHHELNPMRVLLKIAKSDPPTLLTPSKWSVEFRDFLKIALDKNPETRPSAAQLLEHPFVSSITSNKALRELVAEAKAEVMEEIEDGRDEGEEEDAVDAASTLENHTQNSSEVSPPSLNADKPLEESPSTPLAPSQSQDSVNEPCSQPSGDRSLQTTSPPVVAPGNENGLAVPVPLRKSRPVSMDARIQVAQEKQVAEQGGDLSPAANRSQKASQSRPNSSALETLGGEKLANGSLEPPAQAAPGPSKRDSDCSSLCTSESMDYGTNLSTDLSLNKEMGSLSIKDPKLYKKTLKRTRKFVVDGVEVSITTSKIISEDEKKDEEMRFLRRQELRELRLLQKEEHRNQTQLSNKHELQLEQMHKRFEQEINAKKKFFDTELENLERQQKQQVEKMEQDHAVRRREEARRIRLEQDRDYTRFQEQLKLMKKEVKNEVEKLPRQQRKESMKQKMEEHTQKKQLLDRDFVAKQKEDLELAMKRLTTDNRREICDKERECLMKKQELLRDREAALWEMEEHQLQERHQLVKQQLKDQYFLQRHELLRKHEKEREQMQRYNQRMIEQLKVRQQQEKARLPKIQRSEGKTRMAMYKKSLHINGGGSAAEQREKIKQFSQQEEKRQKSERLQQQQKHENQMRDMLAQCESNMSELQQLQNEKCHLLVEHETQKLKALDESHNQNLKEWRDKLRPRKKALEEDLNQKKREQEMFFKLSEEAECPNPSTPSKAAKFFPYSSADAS

As for `Cn1cc(-n2cnc3c(NCc4nc5cc(Cl)c(Cl)cc5[nH]4)nc(N4CCOCC4)nc32)cn1`, in assay [1], the % of control is -0.23%. Moreover, in assay [2], the % of inhibition was -1.89%.

As to `N#Cc1cccc(-c2c[nH]c3ncnc(N4CCOCC4)c23)c1`, the % of control in [3] is 100%. Turning to `O=C(NOC[C@H](O)CO)c1ccc(F)c(F)c1Nc1ccc(I)cc1F`, the % of control in [4] turned out to be 94%.

As to `CNC(=O)Nc1ccc(-c2nc(N3CC4CCC(C3)O4)c3cnn(C4CCC5(CC4)OCCO5)c3n2)cc1`, the % of inhibition in [5] turned out to be 1%. Turning to `COc1cc(Nc2nc(C)cc(-c3cnn4nc(OC)ccc34)n2)cc(C(F)(F)F)c1`, the % of control was determined as 83% in assay [6] and 70% in [7]. With `Cc1ccc(-c2ccc3c(ccc4sc5c(c43)NC[C@@H](C)NC5=O)n2)cn1`, the values for the % of inhibition in [8], in [9] and in assay [10] were 2%, 5% and 47%, respectively. In the case of `CN(C)CCOc1ccc(-c2nc(-c3ccncc3)c(-c3ccc4c(c3)CC/C4=N\O)[nH]2)cc1`, the % of control in [11] and in assay [12] was 100% in each case. `Cc1cc(CN)cc(C)c1-c1ncn(C)c1-c1cncn1C` displayed a dTM in assay [13] of -1.74 K.

As for `O[C@H]1CC[C@H](Nc2ncc3nc(Nc4c(F)cc(F)cc4F)n([C@H]4CCOC4)c3n2)CC1`, the % of control in [14] was 100%.
